In patent publication US8232278B2 (Gilead Sciences, Inc., priority 2005, dated 2012):
pEC50: −log10 of the molar value.

Key:
[1] = CC50 assay in Huh-7 HCV replicon cells (CellTiter-Glo); type: cell-based, human; settings: human, 50% cytostatic concentration
Experimental: (§1) The anti-HCV activity of the pyrido[3,2-d]pyrimidine derivatives of this invention was tested in a human hepatoma Huh-7 cell line harbouring a HCV replicon. The assay comprised the following steps:
(§2) Step 1: Compound Preparation and Serial Dilution
(§3) • 1. for water soluble pyrido[3,2-d]pyrimidine derivatives, a volume of 500 μL of solution in cell media (DMEM, 10% FBS, P/S, L-Glutamine) was prepared with a concentration being twice the concentration of the starting final serial dilution concentration. […] The rest of the plate, columns 2-12, was filled with 100 μL of cell media. The plate was then placed on a Precision 2000 Workstation to start the serial dilution. Compounds were diluted three times each step from column 1 to column 10. Column 11 was used as a blank control (no compound added). • 2. for pyrido[3,2-d]pyrimidine derivatives requiring DMSO to dissolve, serial dilution is performed in 50% DMSO in a 384-well plate. A solution containing a compound at 100-fold concentration of the starting final serial dilution concentration was prepared in 50% DMSO and added to the pre-specified wells in column 1 of a polypropylene 384-well plate. The plate was then placed on a Precision 2000 Workstation to start the serial dilution. After the serial dilution, a volume of 2 μL of the solution was transferred from the 384-well plate to a 96-well cell culture plate containing 100 μL of cell media on a Biomek FX Workstation. The DMSO concentration in the final assay condition was 0.5% after cells are added to the plate and the total volume in each well is brought to 200 μL. Step 2: to each well of the serial dilution plate prepared above, 100 μL of cell media containing 6000 suspended Huh-7 HCV replicon cells was added with a Multidrop workstation. The plates were incubated for 3 days at 37° C. with 5% CO2. Step 3: Detection: • a) for the EC50 assay, the media in a 96-well cell culture plate was aspirated with a Biotek EL405 plate-washer. A volume of 200 μL of a solution containing a 1:1 mixture of cell-lysis buffer (Promega, Luciferase Cell Culture Lysis 5× Reagent, cat. #E1531) and luciferase substrate solution (Promega, Luciferase Assay, cat. #E4550) was added to each well of the plate with Multidrop.
(§4) Results in table 7 are expressed by the following data: • the 50% effective concentration (EC50), i.e. the concentration that protects 50% of the cell monolayer from virus-induced cythopathic effect, and • the 50% cytostatic concentration (CC50), i.e. the concentration that results in 50% inhibition of cell growth. Table 7 further indicates the nature of substituents being present in positions 2, 4 and 6 of the pyrido[3,2-d]pyrimidine derivatives of the invention.

[2] = tested on: HCV replicon; assay: Anti-HCV assay / replicon assay (EC50, luciferase read-out); type: cell-based, hepatitis C virus (HCV); settings: for CC50/EC50: CC50/EC50 ratio (selectivity index); for pEC50: Hepatitis C virus, 72 h, human hepatoma Huh-7 cell line harbouring a HCV replicon, 3 days, luciferase luminescence, read-out: EC50
Experimental: as §1, §2, §3, §4

SMILES | CC50 at 3 days [1] [nM] | CC50/EC50 [2] | pEC50 [2]
CC(=O)N1CCN(c2nc(N)nc3ccc(-c4ccc5c(c4)OCO5)nc23)CC1 [Example 184, 2-amino-4-[N-acetyl-piperazin-1-yl]-6-(3,4-methylenedioxyphenyl)-pyrido[3,2-d]pyrimidine] | 21800 | 128 | 6.77
Nc1nc(N2CCN(C(=O)COc3ccc(Cl)cc3)CC2)c2nc(-c3ccc4c(c3)OCO4)ccc2n1 [Example 187, 2-amino-4-[N-(4-chlorophenoxy-acetyl)-piperazin-1-yl]-6-(3,4-methylenedioxyphenyl)-pyrido[3,2-d]pyrimidine] | 1200 | 64 | 7.72
Cc1cccc(NC(=O)N2CCN(c3nc(N)nc4ccc(-c5ccc6c(c5)OCO6)nc34)CC2)c1 [Example 190, 2-amino-4-[N-(3-methyl-phenyl-carbamoyl)-piperazin-1-yl]-6-(3,4-methylenedioxyphenyl)-pyrido[3,2-d]pyrimidine] | 610 | 51 | 7.92
COc1ccc(-c2ccc3nc(N)nc(N4CCCN(C(=O)Nc5cccc(C)c5)CC4)c3n2)cc1OC [Example 241, 2-amino-4-[(N-3-methylphenylcarbamoyl)-homopiperazin-1-yl]-6-(3,4-dimethoxyphenyl)-pyrido[3,2-d]pyrimidine] | 2400 | 218 | 7.96
COc1ccc(-c2ccc3nc(N)nc(NC4CCN(C(=O)OC(C)(C)C)CC4)c3n2)cc1OC [Example 246, 2-amino-4-[(1-Boc-piperidin-4-yl)amino]-6-(3,4-dimethoxyphenyl)-pyrido[3,2-d]pyrimidine] | 1500 | 70 | 7.66
COc1ccc(-c2ccc3nc(N)nc(NC4CCCN(C(=O)OC(C)(C)C)C4)c3n2)cc1OC (stereo not drawn) [Example 247, 2-amino-4-[(1-Boc-piperidin-3-yl)amino]-6-(3,4-dimethoxyphenyl)-pyrido[3,2-d]pyrimidine] | 5200 | 238 | 7.66
COc1ccc(-c2ccc3nc(N)nc(NC4CCCN(C(=O)Nc5cccc(C)c5)C4)c3n2)cc1OC (stereo not drawn) [Example 254, 2-amino-4-[(3-methylphenylcarbamoylpiperidin-3-yl)amino)-6-(3,4-dimethoxyphenyl]-pyrido[3,2-d]pyrimidine] | 7300 | 147 | 7.30
COc1ccc(-c2ccc3nc(N)nc(N4CCCC(C(=O)NCC(C)C)C4)c3n2)cc1OC (stereo not drawn) [Example 258, 2-amino-4-[(3-carboxylic acid isobutylamide)-piperidin-1-yl]-6-(3,4-dimethoxyphenyl)-pyrido[3,2-d]pyrimidine] | 4200 | 56 | 7.13
COc1ccc(-c2ccc3nc(N)nc(N4CCN(CC(=O)NCCc5ccccc5)CC4)c3n2)cc1OC [Example 260, 2-amino-4-[4-(N-2-phenylethylacetamid-2-yl)piperazin-1-yl]-6-(3,4-dimethoxyphenyl)-pyrido[3,2-d]pyrimidine] | 2600 | 73 | 7.44
COc1ccc(-c2ccc3nc(N)nc(NCCC(=O)N4CCN(C(C)=O)CC4)c3n2)cc1OC [Example 262, 2-amino-4-[3-(4-acetylpiperazin-1-yl)-propan-3-one-1-yl-amino]-6-(3,4-dimethoxyphenyl)-pyrido[3,2-d]pyrimidine] | 25100 | 261 | 7.02
COc1ccc(-c2ccc3nc(N)nc(N4CCN(CC(=O)N5CCCC5)CC4)c3n2)cc1OC [Example 263, 2-amino-4-(N-pyrrolidinyl-acetamid-2-yl-piperazin-1-yl)-6-(3,4-dimethoxyphenyl)pyrido[3,2-d]pyrimidine] | 2900 | 102 | 7.55
COc1ccc(-c2ccc3nc(N)nc(N4CCN(CC(=O)N5CCOCC5)CC4)c3n2)cc1OC [Example 265, 2-amino-4-[N-(piperazino)-acetyl-morpholino]-6-(3,4-dimethoxyphenyl)-pyrido[3,2-d]pyrimidine] | 2600 | 84 | 7.51
CCOc1nc(N)nc2ccc(-c3ccccc3F)nc12 [Example 279, 2-amino-4-ethoxy-6-(o-fluorophenyl)-pyrido[3,2-d]pyrimidine] | 37500 | 54 | 6.16
CCOc1nc(N)nc2ccc(-c3cccc(F)c3)nc12 [Example 280, 2-amino-4-ethoxy-6-(m-fluorophenyl)-pyrido[3,2-d]-pyrimidine] | 37500 | 125 | 6.52
CCCOc1nc(N)nc2ccc(-c3ccc(F)cc3)nc12 [Example 283, 2-amino-4-n-propoxy-6-(p-fluorophenyl)-pyrido[3,2-d]pyrimidine] | 21000 | 221 | 7.02
CC(=O)Nc1nc(OC(C)C)c2nc(-c3ccc(F)cc3)ccc2n1 [Example 285, 2-acetamido-4-isopropoxy-6-(p-fluorophenyl)-pyrido[3,2-d]pyrimidine] | 25100 | 492 | 7.29
CCCCOc1nc(N)nc2ccc(-c3ccc(F)cc3)nc12 [Example 290, 2-amino-4-n-butoxy-6-(p-fluorophenyl)-pyrido[3,2-d]pyrimidine] | 21300 | 63 | 6.47
CC(C)COc1nc(N)nc2ccc(-c3ccc(F)cc3)nc12 [Example 293, 2-amino-4-isobutoxy-6-(p-fluorophenyl)-pyrido[3,2-d]pyrimidine] | 25100 | 68 | 6.43
CCC(C)Oc1nc(N)nc2ccc(-c3ccc(F)cc3)nc12 (stereo not drawn) [Example 296, 2-amino-4-sec. butoxy-6-(p-fluorophenyl)-pyrido[3,2-d]pyrimidine] | 37500 | 67 | 6.25
CCCCCOc1nc(N)nc2ccc(-c3cccc(F)c3)nc12 [Example 298, 2-amino-4-n-pentyloxy-6-(m-fluorophenyl)-pyrido[3,2-d]pyrimidine] | 28000 | 77 | 6.44
Nc1nc(OCC2CC2)c2nc(-c3ccc(F)cc3)ccc2n1 [Example 326, 2-amino-4-(cyclopropylmethyloxy)-6-(4-fluorophenyl)pyrido[3,2-d]pyrimidine] | 25100 | 254 | 7.00
Nc1nc(OCC(F)(F)F)c2nc(-c3ccc(F)cc3)ccc2n1 [Example 351, 2-amino-4-(trifluoroethoxy)-6-(4-fluorophenyl)-pyrido[3,2-d]pyrimidine] | 25100 | 132 | 6.72
CC(=O)Nc1ccc(-c2ccc3nc(N)nc(OC(C)C)c3n2)cc1 [Example 355, 2-amino-4-(isopropoxy)-6-(p-acetamidophenyl)-pyrido(3,2-d)pyrimidine] | 25100 | 120 | 6.68
CC(=O)Nc1ccc(-c2ccc3nc(N)nc(OCC4CC4)c3n2)cc1 [Example 356, 2-amino-4-(cyclopropylmethyloxy)-6-(p-acetamidophenyl)-pyrido(3,2-d)pyrimidine] | 25100 | 87 | 6.54
